What was measured:
Drosophila histone SAR = test: DNase I footprinting on SAR probe; assay type: binding; conditions: for Ratio: Kdapp W9 / Kdapp SAR (SAR specificity factor); for Kd: apparent binding affinity, DNase I footprinting, SAR probe, read-out: Kdapp SAR
Protocol: (§1) Synthetic oligonucleotides […] and […] were hybridized to obtain the W9 probe, oligomerized by ligation and digested with BamHI and BglII to obtain different tandem repeats. The following oligonucleotides were prepared identically: GAF31 is composed of the oligonucleotides […] and […] and, BrownI of oligonucleotides […] and […]. Fragments were purified on low-melt agarose gels and then cloned into a modified pSP64 vector, cut by BamHI and BglII. End-labeling was carried out following digestion with HindIII and a fill-in reaction with Klenow DNA polymerase. The labeled plasmid was cut with PvuII and the target fragments purified from low-melting agarose gels. The 657 bp EcoR1/Hinf1 fragment of the Drosophila histone SAR was cloned into the SmaI site of the modified pSP64 plasmid. This SAR probe was end-labeled following-digestion with EcoR1, then cut with ClaI and the resulting 347 bp fragment purified from low-melting agarose gels.
(§2) All reactions were performed in a total volume of 40 μl. A polyamide stock solution or buffer (for reference lanes) was added to an assay buffer containing 20 kcpm radiolabeled DNA, affording final concentrations of 10 mM Tris-HCl (pH 7.4), 10 mM KCl, 10 MM MgCl, 5 mM CaCl2, 0.5 mM EDTA, 0.5 mM EGTA, 1 mM DTT and 0.1% digitonine. The solutions were allowed to equilibrate for at least 2 h at room temperature. Footprinting reactions were initiated by the addition of 2 μl of a DNase stock solution (containing −100 μg DNase I in buffer) and allowed to proceed for 2 min at room temperature. The reactions were stopped by addition of 10 μl of a solution containing 1.25 M NaCl, 100 mM EDTA. Next, 5 μl of a 1% SDS solution was added, followed by 2 μl of a solution containing 1 μg poly(dA-dT), 1 μg salmon sperm DNA and 10 μg glycogen and the DNA was ethanol precipitated (20 min at −20 C.). The reactions were resuspended in 4 μl of 80% formamide loading buffer, denatured 10 min at 85 C., cooled on ice and electrophoresed on 8% polyacrylamide denaturing gels (5% cross-link, 8 M urea) at 30 W for 1 h. The gels were dried and exposed o/n at −70 C.

[1] = target: W9 probe (tandem repeats of an oligonucleotide with a 9 bp AT-tract); test: DNase I footprinting on probe W9; assay type: binding; conditions: apparent binding affinity, DNase I footprinting, probe W9; read-out: Kdapp W9
Source text: DNase I cleavage pattern in the presence of P9 and P7. Ligand concentrations are indicated at the top of each lane. The position of each of the AT-tracts is indicated by square brackets. […] This probe is composed of head-to-tail tandem repeats of an oligonucleotide with a 9 bp AT-tract.
as §1, §2

[2] = tested on: satellite III chromatin in Kc nuclei; conditions: previously reported (Kas and Laemmli, 1992); cited from earlier work
[3] = tested on: DNA satellites in Kc nuclei and polytene chromosomes; test: Staining of Kc nuclei and polytene chromosomes with fluorescent polyamides; set-up: species or system Drosophila; conditions: isolated Kc nuclei and polytene chromosomes
Protocol: Kc Drosophila nuclei were isolated (Mirkovitch et al., 1984), diluted into XBE (10 mM Hepes, pH 7.7, 2 mM MgCl2, 0.1 mM CaCl2, 100 mM KCl, 5 mM EGTA and 50 mM sucrose), fixed with 0.8% fresh paraformaldehyde for 15 minutes and spun onto a round coverslip (10 mm) as described previously (Boy de la Tour and Laemmli, 1988). For washing and staining, coverslips were floated on 60 μl drops of XBE deposited on […]. After centrifugation coverslips were washed twice (1 minute), stained for 60 minutes, washed four times (1 minute) and then mounted in PPDI (5 mM Hepes pH 7.8, 100 mM NaCl, 20 mM KCl, 1 mM EGTA, 10 mM Mg SO4, 2 mM CaCl2, 78% glycerol, 1 mgr/ml paraphenylene diamine). FIG. (4) panel A was stained with 0.5 μM […] and 15 μM ethidium bromide (EB). Kc nuclei and polytene chromosomes were stained with fluorescent polyamides as described elsewhere (Janssen et al., 2000). For immunofluorescence, polytene glands were carefully dissected from bw^D or Canton S. flies in 1× PBS as described (Ashburner, 1989) Whole glands in sol P (1×PBS supplemented with 1 mM MgCl2 and 0.1% digitonin) were then incubated for 60 minutes with various concentrations of either P31, P9 or no compound at room temperature. P31 (not P9) induced redistribution of GAF during this incubation step. […] Images were recorded with a wide field, deconvolution-type imaging system from DeltaVision.

Row | Compound | Ratio (Drosophila histone SAR) | Kd (Drosophila histone SAR) [µM] | Kd [1] [µM] | chromatin opening at satellite III by distamycin [2] | increase of SAR specificity upon fluorescein tagging (Drosophila histone SAR; tagged versus untagged compound) | main nuclear targets by epifluorescence staining [3]
1 | CN(C)CCCNC(=O)CCNC(=O)c1cc(NC(=O)c2cc(NC(=O)c3cc(NC(=O)c4cc(NC(=O)c5cccn5C)cn4C)cn3C)cn2C)cn1C [Compound P10, (Py)5βDp] | 2.3 | 0.035 | 0.08 |  |  | 
2 | F*γ(Py)5βDp [Compound P10F] | 2.5 | 1.2 | 3 |  |  | 
3 | Cn1cc(NC(=O)c2cc(NC(=O)c3cc(NC=O)cn3C)cn2C)cc1C(=O)NCCC(=N)N [distamycin] |  |  |  | causes opening of the chromatin fiber |  | 
4 | CN(C)CCCNC(=O)CCNC(=O)c1cc(NC(=O)c2cc(NC(=O)c3cc(NC(=O)CCNC(=O)c4cc(NC(=O)c5cc(NC(=O)c6cc(NC(=O)CCNC(=O)c7cc(NC(=O)c8cc(NC(=O)c9cccn9C)cn8C)cn7C)cn6C)cn5C)cn4C)cn3C)cn2C)cn1C [Compound P13, ((Py)3β)3Dp] | 0.8 | 0.00125 | 0.001 |  |  | 
5 | (Py)3β(Py)3βD* [Compound P9F] | 4 | 0.001 | 0.004 |  | about 4 fold | targets primarily satellite I and III
